These results are taken from article PMC5517562, “Design and discovery of novel monastrol-1,3,5-triazines as potent anti-breast cancer agent via attenuating Epidermal Growth Factor Receptor tyrosine kinase” (Scientific Reports, 2017).

One data set relates to WT EGFR. Further details: method as in PMID 22227214. Particulars: cited from earlier work.
In a further data set the test system is mutant EGFRT790M/L858R. The arrangement: method as in PMID 22227214. Particulars: cited from earlier work.
A further data set has as its system A549. Further details: method as in PMID 22227214. Particulars: read-out: IC50 antiproliferative activity A549; cited from earlier work.
The next data set has as its system A431. The arrangement: method as in PMID 22227214. The note with it: read-out: IC50 antiproliferative activity A431; cited from earlier work.
In a further data set the test system is NCIH1975. Further details: method as in PMID 22227214. Particulars: read-out: IC50 antiproliferative activity NCIH1975; cited from earlier work.
The test system of another data set is HeLa (cervical cancer). The experiment in a line: MTT in vitro cytotoxicity assay, HeLa. Particulars: Homo sapiens. It is filed as cell-based, human. As to the method: (§1) The synthesized compounds were evaluated for in-vitro cytotoxic activity against various cell lines such as HeLa (cervical cancer), MCF-7 (breast cancer), HL-60 (Human promyelocytic leukemia), HepG2 (Hepatocellular carcinoma) and MCF 12A (normal epithelial cell) by the MTT assay method. […] The relationship between surviving fraction and drug concentration was plotted to obtain the survival curve of all the cancer cell lines HeLa, MCF-7, HL-60 and HepG2. The response parameter calculated was the IC50 values, which responds to the concentration required for 50% inhibition of cell viability. The in-vitro cytotoxic activity of the synthesized compounds is summarized Table 3.
(§2) The target compounds were subjected to in vitro cytotoxicity bioassay. In vitro cytotoxicity was determined using a standard MTT assay with protocol appropriate for the individual test system[29]–[31]. The four human cancer cell lines HeLa, MCF-7, HL-60, HepG2 and MCF-12A were cultured in the MEM medium supplemented with 10% FBS, 1% glutamine and […] gentamicin sulfate in a CO2 incubator in a humidified atmosphere of 5% CO2 and 95% air. The test compounds were prepared prior to the experiment by dissolving in 0.1% DMSO and diluted with medium. The cells were then exposed to different concentrations of drugs ([…]) in the volume of […]. Cells in the control wells received the same volume of medium containing 0.1% DMSO. After 24 h, the medium was removed and cell cultures were incubated with […] MTT reagent (1 mg/ml) for 5 h at 37 °C. The known number of cells ([…]) was incubated in a 5% CO2 incubator at 37 °C in the presence of different concentrations of test compounds. After 48 h of drug incubation, the MTT solution was added in each well and absorbance was recorded at 540 nm by an ELISA reader. The experiment was performed in triplicate. Cell survival was calculated as the percentage of MTT inhibition as % growth inhibition = 100 − (mean OD of individual test Group/Mean OD of each Control Group) × 100.

For a further data set, the system named is MCF-7 (breast cancer). The experiment in a line: MTT in vitro cytotoxicity assay, MCF-7. It is filed as cell-based, human. Particulars: Homo sapiens, MCF7. Here is the method: as §1, §2
Data set [1] concerns HL-60 (Human promyelocytic leukemia). The experiment in a line: MTT in vitro cytotoxicity assay, HL-60. The note with it: Homo sapiens. In kind it is cell-based. As to the method: as §1, §2
In data set [2] the test system is HepG2 (Hepatocellular carcinoma). The data set can be described thus: MTT in vitro cytotoxicity assay, HepG2. In kind it is cell-based, human. The note with it: Homo sapiens, NA: Not active. As to the method: as §1, §2
Data set [3] concerns MCF 12A (normal epithelial breast cell line). The experiment in a line: MTT assay on normal cells, MCF 12A. In kind it is cell-based, human. Particulars: normal epithelial breast cell MCF 12A. Here is the method: as §1
The presence of non-halogen substituent along with electron donating substituent seriously jeopardise the anticancer potential. […] To determine the selectivity of these molecules between normal and cancerous cells, the designed compounds were also tested against MCF 12A, a normal epithelial breast cell.
as §2

A further data set addresses T1, EGFR-TK (Homo sapiens, UniProt P00533).
T1 construct: 0.2 mg/mL Poly (Glu, Tyr) substrate, 10 mM ATP and EGFR
The experiment in a line: EGFR tyrosine kinase inhibitory activity (Kinase-Glo Plus luminescence). The note with it: for inhibition at 10 µM: read-out: Percent of Inhibition, EGFR tyrosine kinase. In kind it is biochemical. As to the method:
Kinase activity was determined using Kinase-Glo Plus luminescence kinase assay kit, by quantitating the amount of ATP remaining in the solution of kinase reaction. The luminescent signal is correlated with the residual amount present and it was inversely related with kinase activity. The tested compounds were diluted to 100 mM in 10% DMSO, then […] of the dilution was added to a 50 mL reaction. All of the enzymatic reactions were performed at 30 °C for 40 min, 50 mL of reaction mixture contains 10 mM MgCl2, 40 mM Tris, pH 7.4, 0.1 mg/mL BSA, 0.2 mg/mL Poly (Glu, Tyr) substrate, 10 mM ATP and EGFR. Incubate the plate for 5 min at r.t. then add 50 mL of Kinase-GloPlus Luminescence kinase assay to each reaction. ADP-Glo assay kit is the protein kinase assays used to determine IC50 values in which ADP generation was measured as it leads to an increase in luminescence signal. The reaction mixture was incubated in a 96-well plate at 30 °C for 30 min, after the incubation period add 25 mL of ADP-Glo reagent to terminate the assay. Shake the 96-well plate for 30 min at ambient temperature then incubate it, then add 50 mL of kinase detection reagent. Read the 96-well plate using the ADP-Glo Luminescence reader. All the assay components were added to the blank control except the substrate. By removing the blank control value you can obtain the corrected activity for each protein kinase target.

T1 sequence (P00533 25-1210): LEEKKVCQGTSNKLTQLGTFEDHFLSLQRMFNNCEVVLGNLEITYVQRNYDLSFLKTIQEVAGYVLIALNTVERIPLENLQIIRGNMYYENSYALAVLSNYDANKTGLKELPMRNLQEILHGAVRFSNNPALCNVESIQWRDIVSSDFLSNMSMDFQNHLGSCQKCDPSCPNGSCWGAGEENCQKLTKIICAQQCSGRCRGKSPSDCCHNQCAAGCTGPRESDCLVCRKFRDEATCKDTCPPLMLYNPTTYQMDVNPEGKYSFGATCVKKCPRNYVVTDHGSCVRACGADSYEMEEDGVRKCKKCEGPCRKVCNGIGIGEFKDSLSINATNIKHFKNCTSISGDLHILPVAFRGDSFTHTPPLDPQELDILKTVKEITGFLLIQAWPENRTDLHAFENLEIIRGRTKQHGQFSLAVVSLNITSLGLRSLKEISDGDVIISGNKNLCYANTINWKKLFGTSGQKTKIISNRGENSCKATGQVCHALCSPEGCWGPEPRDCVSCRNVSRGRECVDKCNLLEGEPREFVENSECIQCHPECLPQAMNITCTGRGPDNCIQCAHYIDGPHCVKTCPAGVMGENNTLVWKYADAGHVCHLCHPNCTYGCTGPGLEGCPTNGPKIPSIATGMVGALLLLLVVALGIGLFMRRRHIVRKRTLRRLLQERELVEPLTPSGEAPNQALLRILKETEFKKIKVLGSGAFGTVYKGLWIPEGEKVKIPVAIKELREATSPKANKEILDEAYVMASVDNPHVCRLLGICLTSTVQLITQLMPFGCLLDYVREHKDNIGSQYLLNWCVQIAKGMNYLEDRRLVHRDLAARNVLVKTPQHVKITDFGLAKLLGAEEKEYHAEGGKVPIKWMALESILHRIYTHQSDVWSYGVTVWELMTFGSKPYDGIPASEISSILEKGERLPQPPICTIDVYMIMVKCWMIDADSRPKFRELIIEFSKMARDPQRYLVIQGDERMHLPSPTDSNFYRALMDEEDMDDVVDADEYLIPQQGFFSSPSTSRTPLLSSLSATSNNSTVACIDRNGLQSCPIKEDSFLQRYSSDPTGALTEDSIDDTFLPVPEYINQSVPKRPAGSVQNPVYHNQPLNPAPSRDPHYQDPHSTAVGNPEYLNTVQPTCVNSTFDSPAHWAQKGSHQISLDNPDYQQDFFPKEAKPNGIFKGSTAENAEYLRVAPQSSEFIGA

Consider `CC(C)Nc1nc(N/N=C/c2cc(Br)c(O)c(Br)c2O)nc(Nc2ccc(F)cc2)n1` [1a], for which the IC50 (as a rule, the concentration that inhibits the measured activity by half) in the data set with WT EGFR is 25.9 µM; in the data set on mutant EGFRT790M/L858R it was 6.5 µM; in the data set on A549, 7.7 ± 1.3 µM; in the data set with A431 it was 8 ± 1.6 µM; in the data set with NCIH1975, 10.5 ± 0.9 µM.
`CCOC(=O)C1=C(C)N(c2nc(Nc3ccc([N+](=O)[O-])cc3)nc(Nc3ccc([N+](=O)[O-])cc3)n2)C(=S)NC1c1ccc(Cl)cc1` (stereo not shown) [7h, Ethyl 1-(4,6-bis((4-nitrophenyl)amino)-1,3,5-triazin-2-yl)-4-(4-chlorophenyl)-6-methyl-2-thioxo-1,2,3,4-tetrahydropyrimidine-5-carboxylate]: the melting point (as a rule, the temperature of the solid-liquid transition) was in the range of 146 to 147 °C. In addition, in the data set on HeLa (cervical cancer), 73.4 ± 0.65 µM corresponded to half-maximal inhibition (IC50). The compound further gave an IC50 in the data set with MCF-7 (breast cancer) of 71.5 ± 0.46 µM. The compound also yielded an IC50 in [1] of 61.4 ± 0.36 µM. The compound also registered an IC50 in data set [2] of 69.6 ± 0.38 µM. Further, the “IC50 MCF 12A” value in data set [3] is “non-toxic”. Further, on EGFR-TK (EGFR-TK percent inhibition as repeated in docking Table 5), the “%i” value came to 69.1%. Moreover, at EGFR-TK (at 10 µM), the “Percent of Inhibition, EGFR tyrosine kinase” value was 69.1% and the inhibition (as a rule, the relative decrease from the control value, in per cent) at 10 µM is approximately 69%.
In the case of `CCOC(=O)C1=C(C)N(c2nc(Nc3ccc(Cl)cc3)nc(Nc3ccc(Cl)cc3)n2)C(=S)NC1c1ccccc1Cl` (stereo not shown) [7j, Ethyl 1-(4,6-bis((4-chlorophenyl)amino)-1,3,5-triazin-2-yl)-4-(2-chlorophenyl)-6-methyl-2-thioxo-1,2,3,4-tetrahydropyrimidine-5-carboxylate], the melting point is 112 to 114 °C. Besides, in the data set on HeLa (cervical cancer), the IC50 was 46.2 ± 0.56 µM. In the data set on MCF-7 (breast cancer), this compound came in with an IC50 of 57 ± 0.47 µM. In addition, the IC50 in [1] is 39.6 ± 0.78 µM. For the same compound, in [2], the IC50 came out at 38.7 ± 0.32 µM. This compound also displayed a 50% inhibitory concentration (IC50) in data set [3] (Homo sapiens) of 69.13 ± 0.62 µM. Besides, on EGFR-TK (at 10 µM), the inhibition at 10 µM came out at 82.4%.
For the compound `CCOC(=O)C1=C(C)N(c2nc(Nc3ccccc3[N+](=O)[O-])nc(Nc3ccccc3[N+](=O)[O-])n2)C(=S)NC1c1ccc(C)cc1` (stereo not shown) [7c, Ethyl 1-(4,6-bis((2-nitrophenyl)amino)-1,3,5-triazin-2-yl)-6-methyl-2-thioxo-4-(p-tolyl)-1,2,3,4-tetrahydropyrimidine-5-carboxylate], the melting point lay in the range of 232 to 234 °C. Besides, half-maximal inhibition in the data set with HeLa (cervical cancer) (IC50) was put at 83.5 ± 0.22 µM. Also, the IC50 with MCF-7 (breast cancer) worked out at 72.2 ± 0.61 µM. The compound further registered an IC50 in [1] of 70.5 ± 0.49 µM. The midpoint of inhibition in data set [2], the IC50, lay at 86.4 ± 0.67 µM. Further, in [3], the “IC50 MCF 12A” value is “non-toxic”. Besides, at EGFR-TK (at 10 µM), the inhibition at 10 µM was determined as 53.6%.
On to `CCOC(=O)C1=C(C)N(c2nc(Nc3cccc(Cl)c3)nc(Nc3cccc(Cl)c3)n2)C(=S)NC1c1ccc(O)cc1` (stereo not shown) [7d, Ethyl 1-(4,6-bis((3-chlorophenyl)amino)-1,3,5-triazin-2-yl)-4-(4-hydroxyphenyl)-6-methyl-2-thioxo-1,2,3,4-tetrahydropyrimidine-5-carboxylate], for which the melting point was in the range of 161 to 163 °C. In the data set on HeLa (cervical cancer), half-maximal inhibition (IC50) was put at 51.3 ± 0.32 µM. Moreover, in the data set on MCF-7 (breast cancer), the IC50 stood at 61.3 ± 0.78 µM. Moreover, in data set [1], the midpoint of inhibition, the IC50, lay at 43.2 ± 0.38 µM. For the same compound, the IC50 in data set [2] was found to be 41.4 ± 0.38 µM. Further, the “IC50 MCF 12A” value in data set [3] is given as “non-toxic”. The inhibition at 10 µM at EGFR-TK (at 10 µM) worked out at 74.8%.
Turning to `CNc1nc(N/N=C/c2ccc(O)cc2)nc(Nc2ccccc2)n1` [1f], the results for the IC50 with WT EGFR and in the data set with mutant EGFRT790M/L858R were more than 100 µM and 30.7 µM, respectively.
